pKi: −log10 of the molar value. *1 amine or outer side, *2 acyl side, *3 side chain or, on linkers, in order; H or OH if unused. Where a SMILES comes first, the peptide text is derived from it. Bridges are numbered along the chain shown (N, C = ends). [ ]: non-standard residue; d: D form. The star is where a group is joined. ξ: configuration not given here. Phe(4-Cl) = N[C@@H](Cc1ccc(Cl)cc1)C(=O)O; d2Nal = N[C@H](Cc1ccc2ccccc2c1)C(=O)O; dNMeF = CN[C@H](Cc1ccccc1)C(=O)O; X1 = O=C(C(N[*:1])S[*:3])[*:2]; NMeA = CN[C@@H](C)C(=O)O; dNMeA = CN[C@H](C)C(=O)O; Abu = CC[C@H](N)C(=O)O; Ahp = NCCCCCCC(=O)O; Bn = c1ccc(C*)cc1; ξC = NC(CS)C(=O)O; Mpa = O=C(O)CCS
Columns and labels:
[1] = target: Somatostatin receptor type 3 (Mus musculus, UniProt P30935)
Somatostatin receptor type 3, sequence (P30935 whole entry): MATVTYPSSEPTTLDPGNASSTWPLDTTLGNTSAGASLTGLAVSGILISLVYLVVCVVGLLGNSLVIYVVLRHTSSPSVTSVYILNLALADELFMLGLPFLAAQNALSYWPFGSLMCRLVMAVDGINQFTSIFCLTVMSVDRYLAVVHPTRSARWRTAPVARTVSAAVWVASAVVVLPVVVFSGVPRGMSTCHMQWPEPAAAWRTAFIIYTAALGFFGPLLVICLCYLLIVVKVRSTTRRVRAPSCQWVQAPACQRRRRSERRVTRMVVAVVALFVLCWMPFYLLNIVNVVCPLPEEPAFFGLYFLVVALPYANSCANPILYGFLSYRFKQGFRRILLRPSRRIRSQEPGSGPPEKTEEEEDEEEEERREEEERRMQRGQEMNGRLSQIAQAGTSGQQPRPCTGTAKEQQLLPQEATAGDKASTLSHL

[2] = target: Somatostatin receptor type 4 (Mus musculus, UniProt P49660)
Somatostatin receptor type 4, sequence (P49660 whole entry): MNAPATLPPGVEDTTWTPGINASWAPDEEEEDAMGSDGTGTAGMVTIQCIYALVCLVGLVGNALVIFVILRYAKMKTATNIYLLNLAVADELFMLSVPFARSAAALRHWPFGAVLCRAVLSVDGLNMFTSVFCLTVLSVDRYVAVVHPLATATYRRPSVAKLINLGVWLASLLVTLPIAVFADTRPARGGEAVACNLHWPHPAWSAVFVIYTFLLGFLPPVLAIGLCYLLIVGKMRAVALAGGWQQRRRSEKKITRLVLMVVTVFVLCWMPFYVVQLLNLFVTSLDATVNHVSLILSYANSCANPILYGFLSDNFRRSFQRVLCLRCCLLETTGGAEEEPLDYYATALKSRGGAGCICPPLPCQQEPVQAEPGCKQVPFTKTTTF

[3] = target: T1, Somatostatin receptor type 5 (Rattus norvegicus, UniProt P30938)
T1 sequence (P30938 whole entry): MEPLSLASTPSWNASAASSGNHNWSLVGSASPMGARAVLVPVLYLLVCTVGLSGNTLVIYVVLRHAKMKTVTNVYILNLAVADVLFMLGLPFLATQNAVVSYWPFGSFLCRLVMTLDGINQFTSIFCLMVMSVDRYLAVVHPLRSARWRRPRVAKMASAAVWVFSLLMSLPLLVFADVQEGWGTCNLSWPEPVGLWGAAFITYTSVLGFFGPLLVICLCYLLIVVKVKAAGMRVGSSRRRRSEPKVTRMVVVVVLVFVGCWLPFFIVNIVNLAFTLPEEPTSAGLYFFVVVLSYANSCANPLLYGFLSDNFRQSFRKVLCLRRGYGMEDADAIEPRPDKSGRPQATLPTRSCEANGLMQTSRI

[4] = target: Somatostatin receptor type 2 (Mus musculus, UniProt P30875)
Somatostatin receptor type 2, sequence (P30875 whole entry): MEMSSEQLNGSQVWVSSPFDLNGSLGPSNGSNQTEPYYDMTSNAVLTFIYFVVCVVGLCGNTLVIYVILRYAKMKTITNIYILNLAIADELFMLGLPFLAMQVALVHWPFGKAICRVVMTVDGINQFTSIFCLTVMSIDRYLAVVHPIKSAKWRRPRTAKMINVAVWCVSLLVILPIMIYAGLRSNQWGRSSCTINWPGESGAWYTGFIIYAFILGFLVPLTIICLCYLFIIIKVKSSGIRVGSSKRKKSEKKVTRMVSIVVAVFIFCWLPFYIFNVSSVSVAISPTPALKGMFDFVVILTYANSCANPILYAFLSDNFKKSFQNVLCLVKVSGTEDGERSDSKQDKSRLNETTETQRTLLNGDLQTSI

[5] = target: Somatostatin receptor type 1 (Homo sapiens, UniProt P30872)
Somatostatin receptor type 1, sequence (P30872 whole entry): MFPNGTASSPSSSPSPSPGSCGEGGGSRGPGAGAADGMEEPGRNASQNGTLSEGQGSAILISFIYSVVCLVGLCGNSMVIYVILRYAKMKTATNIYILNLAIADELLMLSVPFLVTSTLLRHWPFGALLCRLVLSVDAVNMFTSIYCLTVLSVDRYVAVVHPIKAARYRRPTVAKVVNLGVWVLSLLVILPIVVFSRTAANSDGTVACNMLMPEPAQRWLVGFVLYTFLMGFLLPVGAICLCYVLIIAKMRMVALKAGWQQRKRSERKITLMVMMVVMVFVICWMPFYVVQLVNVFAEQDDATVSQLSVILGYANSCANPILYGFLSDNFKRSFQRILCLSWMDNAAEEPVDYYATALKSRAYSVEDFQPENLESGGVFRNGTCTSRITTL

| Structure (SMILES) | pKi [1] | pKi [2] | pKi [3] | pKi [4] | pKi [5] |
| --- | --- | --- | --- | --- | --- |
| CC(C)[C@H](NC(=O)[C@H](CCCCN)NC(=O)[C@@H](Cc1c[nH]c2ccccc12)NC(=O)[C@H](Cc1ccc(O)cc1)NC(=O)[C@H](Cc1ccccc1)NC(=O)[C@H](N)Cc1ccccc1)C(=O)N[C@@H](Cc1ccccc1)C(=O)N[C@H](C(N)=O)[C@@H](C)O [BIM-23058] (H-[dF]FY[dW]KVFT-NH2) | 10.52 | 7.11 |  |  |  |
| CC[C@@H]1NC(=O)[C@H](CCCCN)NC(=O)[C@@H](Cc2c[nH]c3ccccc23)NC(=O)[C@H](Cc2ccc(O)cc2)NC(=O)[C@H](C)N(C)C(=O)[C@H](Cc2ccccc2)NC1=O [BIM-23027] (cyclo([Abu]F[NMeA]Y[dW]K)) |  | 6.00 | 8.21 |  |  |
| CC(C)[C@H](NC(=O)[C@H](CCCCN)NC(=O)[C@@H](Cc1c[nH]c2ccccc12)NC(=O)[C@H](Cc1ccc(O)cc1)NC(=O)[C@H](C)NC(=O)[C@H](N)Cc1ccccc1)C(=O)N[C@@H](C)C(=O)N[C@H](Cc1ccc2ccccc2c1)C(N)=O [D-Phe-AIa-Tyr-D-Trp-Lys-Val-Ala-D-Nal-NH2] (H-[dF]AY[dW]KVA[d2Nal]-NH2) |  | 6.00 | 8.23 |  |  |
| CC(C)[C@@H]1NC(=O)[C@H](CCCCN)NC(=O)[C@@H](Cc2c[nH]c3ccccc23)NC(=O)[C@H](Cc2ccc(O)cc2)NC(=O)[C@@H](NC(=O)[C@H](N)Cc2ccccc2)CSSC[C@@H](C(=O)N[C@@H](Cc2c[nH]c3ccccc23)C(N)=O)NC1=O [CAS_71306] (H-[dF]CY[dW]KVCW-NH2; disulfide 2-7) | 7.64 | 6.77 |  | 10.00 |  |
| C[C@@H](O)[C@H](NC(=O)[C@@H]1CSSC[C@H](NC(=O)[C@H](N)Cc2ccc3ccccc3c2)C(=O)N[C@@H](Cc2ccc(O)cc2)C(=O)N[C@H](Cc2c[nH]c3ccccc23)C(=O)N[C@@H](CCCCN)C(=O)N[C@@H]([C@@H](C)O)C(=O)N1)C(N)=O [D-Nal-c[Cys-Tyr-D-Trp-Lys-Thr-Cys]-Thr-NH2] |  |  |  | 11.00 |  |
| C[C@@H](O)[C@@H]1NC(=O)[C@H](CCCCN)NC(=O)[C@@H](Cc2c[nH]c3ccccc23)NC(=O)[C@H](Cc2ccccc2)NC(=O)[C@@H]2CCCN2C(=O)[C@H](Cc2ccccc2)NC1=O (cyclo(PF[dW]KTF)) |  | 6.00 | 8.49 |  |  |
| C[C@H](O)[C@H]1NC(=O)[C@H](CCCCN)NC(=O)[C@@H](Cc2c[nH]c3ccccc23)NC(=O)[C@@H](Cc2ccccc2)NC(=O)[C@@H](C)N(C)C(=O)[C@@H](Cc2ccccc2)N(C)C1=O [N-Methylcyclo(D-Ala-D-Phe-D-Trp-L-Lys-D-Thr-N-methyl-D-Phe-)] (cyclo(K[dT][dNMeF][dNMeA][dF][dW])) |  | 6.00 | 6.39 |  |  |
| C[C@@H](O)[C@@H]1NC(=O)[C@H](Cc2ccccc2)NC(=O)[C@H]([C@@H](C)O)NC(=O)[C@H](CCCCN)NC(=O)[C@@H](Cc2c[nH]c3ccccc23)NC(=O)[C@H](Cc2ccccc2)NC(=O)[C@H](Cc2ccc(Cl)cc2)NC(=O)[C@H](CC(N)=O)NC(=O)[C@H](CCCCN)NC(=O)[C@@H](N)CSSC[C@@H](C(=O)O)NC(=O)[C@H](CO)NC1=O [EC5-21] (H-CKN[Phe(4-Cl)]F[dW]KTFTSC-OH; disulfide 1-12) |  | 8.74 |  | 11.00 |  |
| C[C@@H](O)[C@@H]1NC(=O)[C@H](CCCCN)NC(=O)[C@@H](Cc2c[nH]c3ccccc23)NC(=O)[C@H](Cc2c[nH]c3ccccc23)NC(=O)[C@H](Cc2ccccc2)NC(=O)CCCCCCNC(=O)[C@H](Cc2ccccc2)NC1=O [L-362855] (cyclo([Ahp]FW[dW]KTF)) |  | 7.20 | 11.00 |  |  |
| CSCC[C@H](NC(=O)[C@H](C)NC(=O)[C@@H]1CCCN1C(=O)[C@H](CC(N)=O)NC(=O)[C@H](CO)NC(=O)[C@H](CC(N)=O)NC(=O)[C@H](C)NC(=O)[C@@H](N)CO)C(=O)N[C@@H](C)C(=O)N1CCC[C@H]1C(=O)N[C@@H](CCCNC(=N)N)C(=O)N[C@@H](CCC(=O)O)C(=O)N[C@@H](CCCNC(=N)N)C(=O)N[C@@H](CCCCN)C(=O)N[C@@H](C)C(=O)NCC(=O)N[C@H]1CSSC[C@@H](C(=O)O)NC(=O)[C@H](CO)NC(=O)[C@H]([C@@H](C)O)NC(=O)[C@H](Cc2ccccc2)NC(=O)[C@H]([C@@H](C)O)NC(=O)[C@H](CCCCN)NC(=O)[C@H](Cc2c[nH]c3ccccc23)NC(=O)[C@H](Cc2ccccc2)NC(=O)[C@H](Cc2ccccc2)NC(=O)[C@H](CC(N)=O)NC(=O)[C@H](CCCCN)NC1=O [L-Ser-L-Ala-L-Asn-L-Ser-L-Asn-L-Pro-L-Ala-L-Met-L-Ala-L-Pro-L-Arg-L-Glu-L-Arg-L-Lys-L-Ala-Gly-L-Cys(1)-L-Lys-L-Asn-L-Phe-L-Phe-L-Trp-L-Lys-L-Thr-L-Phe-L-Thr-L-Ser-L-Cys(1)-OH] |  | 9.55 |  |  |  |
| C[C@@H](O)[C@@H]1NC(=O)[C@H](Cc2ccc(O)cc2)NC(=O)[C@H]([C@@H](C)O)NC(=O)[C@H](CCCCN)NC(=O)[C@H](Cc2c[nH]c3ccccc23)NC(=O)[C@H](Cc2ccccc2)NC(=O)[C@H](Cc2ccccc2)NC(=O)[C@H](CC(N)=O)NC(=O)[C@H](CCCCN)NC(=O)CCCCC[C@@H](C(=O)O)NC(=O)[C@H](CO)NC1=O [CGP-23996] | 9.22 | 8.85 |  | 9.00 | 7.00 |
| CC(C)[C@H](NC(=O)[C@H](CCCCN)NC(=O)[C@@H](Cc1c[nH]c2ccccc12)NC(=O)[C@H](Cc1ccc(O)cc1)NC(=O)[C@H](Cc1ccccc1)NC(=O)[C@H](N)Cc1ccccc1)C(=O)N[C@@H](Cc1ccccc1)C(=O)N[C@H](Cc1ccc2ccccc2c1)C(N)=O [CAS_150155-61-6] (H-[dF]FY[dW]KVF[d2Nal]-NH2) | 11.00 | 6.80 | 7.37 | < 5.00 | 6.00 |
| CC(C)[C@@H]1NC(=O)[C@H](CCCCN)NC(=O)[C@@H](Cc2c[nH]c3ccccc23)NC(=O)[C@H](Cc2ccc(O)cc2)NC(=O)[C@H](C)N(C)C(=O)[C@H](Cc2ccccc2)NC1=O [CAS_3086456] |  | 6.00 |  |  |  |
| C[C@@H](O)[C@H](NC(=O)[C@H](Cc1ccccc1)NC(=O)[C@@H](NC(=O)[C@H](CCCCN)NC(=O)[C@@H](Cc1c[nH]c2ccccc12)NC(=O)[C@H](Cc1ccccc1)NC(=O)[C@H](Cc1ccccc1)NC(=O)[C@H](N)Cc1ccccc1)[C@@H](C)O)C(N)=O [CAS_133073-82-2] (H-[dF]FF[dW]KTFT-NH2) | 9.39 | 7.74 |  |  |  |
| C[C@@H](O)[C@@H]1NC(=O)[C@H](CCCCN)NC(=O)[C@@H](Cc2c[nH]c3ccccc23)NC(=O)[C@H](Cc2ccccc2)NC(=O)[C@@H]2CSSCC(NC1=O)C(=O)NCCCCCCC(=O)N2 [(1R,4S,7S,10R,13S,16R)-4-[(R)-1-Hydroxyethyl]-7-(4-aminobutyl)-10-(1H-indole-3-ylmethyl)-13-benzyl-28,29-dithia-2,5,8,11,14,17,25-heptaazabicyclo[14.10.4]triacontane-3,6,9,12,15,18,26-heptone] (cyclo([Ahp]CF[dW]KT[ξC]); disulfide 2-7) | 10.15 | 6.00 | 8.92 |  |  |
| CC(C)[C@@H]1NC(=O)[C@H](CCCCN)NC(=O)[C@@H](Cc2c[nH]c3ccccc23)NC(=O)[C@H](Cc2ccc(O)cc2)NC(=O)CCSSC(C(=O)N[C@@H](Cc2ccccc2)C(N)=O)NC1=O (some centres not stated) [CAS_117580-24-2] ([Mpa]Y[dW]KV[X1]F-NH2; disulfide 1-6) | 6.61 | 6.44 | 8.41 | 6.45 |  |
| C[C@@H](OCc1ccccc1)[C@@H]1NC(=O)[C@H](CCCCN)NC(=O)[C@@H](Cc2c[nH]c3ccccc23)NC(=O)[C@H](Cc2ccccc2)NC(=O)CCCCCCNC1=O [c[Aha-Phe-D-Trp-Lys-Thr(Bzl)]] (cyclo([Ahp]F[dW]KT(Bn))) |  | 6.00 |  |  |  |
| C[C@@H](O)[C@@H]1NC(=O)[C@H](CCCCN)NC(=O)[C@@H](Cc2c[nH]c3ccccc23)NC(=O)[C@H](Cc2ccc(Cl)cc2)NC(=O)[C@H](Cc2ccccc2)NC(=O)CCCCCCNC(=O)[C@H](Cc2ccccc2)NC1=O [L-362862] (cyclo([Ahp]F[Phe(4-Cl)][dW]KTF)) |  | 7.36 |  |  |  |
| CC(C)[C@H](NC(=O)[C@H](CCCCN)NC(=O)[C@@H](Cc1c[nH]c2ccccc12)NC(=O)[C@H](Cc1ccc(O)cc1)NC(=O)[C@H](Cc1ccccc1)NC(=O)[C@H](N)Cc1ccccc1)C(=O)N[C@@H](Cc1ccccc1)C(=O)N[C@H](Cc1ccccc1)C(N)=O [D-Phe-Phe-Tyr-D-Trp-Lys-Val-Phe-D-Phe-NH2] (H-[dF]FY[dW]KVF[dF]-NH2) |  | 6.60 | 8.48 |  |  |

— BindingDB's records for doi:10.1007/BF00173012 (Sandoz Pharma, 1994)
